According to ChEMBL document CHEMBL3885861, “Open TG-GATES”:

Species on record: Rattus norvegicus
Assay: Open TG-GATES - Regimen: Daily Repeat
Type: toxicity, organism-based, Sprague-Dawley
Design: regimen Daily Repeat, gender Male, age 6 weeks
Conditions: in vivo, po, route gavage; for gamma-GTP / ALP / ALT / AST / BUN / CRE / Ca / Cl / DBIL / GLC / IP / K / LDH / Na / PL / RALB / TBIL / TC / TG / TP: tissue Plasma; for APTT / Bas / Eos / Fbg / Hb / Ht / Lym / MCH / MCHC / MCV / Mono / Neu / PT / Plat / RBC / Ret / WBC: tissue Blood; for KIDNEY_L / KIDNEY_R / KIDNEY_TOTAL: tissue Kidney; for LIVER: tissue Liver
[1] = 300 mg/kg, 72 h, dose level Middle, time 3 day
[2] = 300 mg/kg, […], dose level Middle, time 7 day
[3] = 300 mg/kg, […], dose level Middle, time 14 day
[4] = 300 mg/kg, […], dose level Middle, time 28 day

## COC(=O)C1=C(C)NC(C)=C(C(=O)OC)C1c1ccccc1[N+](=O)[O-] [NIFEDIPINE]
100 mg/kg, […], dose level Low, time 28 day
  gamma-GTP: 1 IU/L
[1]
  TERMINAL_BW: 223.2 g
  APTT: 18.7 s
  Bas: 0.4%
  Eos: 1%
  Fbg: 277 mg/dL
  Hb: 13.5 g/dL
  Ht: 41.7%
  Lym: 73%
  MCH: 21.3 pg
  MCHC: 32.3%
  MCV: 66.1 fL
  Mono: 3.6%
  Neu: 21%
  PT: 13.8 s
  Plat: 123.7 x10_4/uL
  RBC: 630.8 x10_4/ul
  Ret: 10.7%
  WBC: 113.4 x10_2/uL
  KIDNEY_L: 0.9 g
  KIDNEY_R: 0.9 g
  KIDNEY_TOTAL: 1.9 g
  LIVER: 11.7 g
  ALP: 1580.8 IU/L
  ALT: 48.2 IU/L
  AST: 68.4 IU/L
  BUN: 14.2 mg/dL
  CRE: 0.2 mg/dL
  Ca: 10.9 mg/dL
  Cl: 107.2 meq/L
  DBIL: 0.018 mg/dL
  GLC: 165.8 mg/dL
  IP: 7.1 mg/dL
  K: 4 meq/L
  LDH: 84.2 IU/L
  Na: 144.4 meq/L
  PL: 159.2 mg/dL
  RALB: 2.6 g/dL
  TBIL: 0.03 mg/dL
  TC: 89.4 mg/dL
  TG: 94.2 mg/dL
  TP: 5.6 g/dL
  gamma-GTP: 1 IU/L
[2]
  TERMINAL_BW: 254 g
  APTT: 15.7 s
  Bas: 0.2%
  Eos: 1%
  Fbg: 292.6 mg/dL
  Hb: 13.9 g/dL
  Ht: 42.7%
  Lym: 69.4%
  MCH: 20.7 pg
  MCHC: 32.6%
  MCV: 63.6 fL
  Mono: 3%
  Neu: 26%
  PT: 13.6 s
  Plat: 128.9 x10_4/uL
  RBC: 671 x10_4/ul
  Ret: 6.2%
  WBC: 113.1 x10_2/uL
  KIDNEY_L: 1 g
  KIDNEY_R: 1 g
  KIDNEY_TOTAL: 2 g
  LIVER: 12.8 g
  ALP: 1439.4 IU/L
  ALT: 43.8 IU/L
  AST: 68.6 IU/L
  BUN: 15.4 mg/dL
  CRE: 0.2 mg/dL
  Ca: 10.8 mg/dL
  Cl: 107.6 meq/L
  DBIL: 0.012 mg/dL
  GLC: 167 mg/dL
  IP: 7 mg/dL
  K: 3.9 meq/L
  Na: 145.6 meq/L
  PL: 154.4 mg/dL
  RALB: 2.8 g/dL
  TBIL: 0.022 mg/dL
  TC: 83.4 mg/dL
  TG: 102 mg/dL
  TP: 5.9 g/dL
  gamma-GTP: 1 IU/L
[3]
  TERMINAL_BW: 319.9 g
  APTT: 19 s
  Bas: 0%
  Eos: 1%
  Fbg: 281.4 mg/dL
  Hb: 14.8 g/dL
  Ht: 44.7%
  Lym: 74.8%
  MCH: 20.6 pg
  MCHC: 33.2%
  MCV: 62.1 fL
  Mono: 3%
  Neu: 20%
  PT: 14 s
  Plat: 117.6 x10_4/uL
  RBC: 719 x10_4/ul
  Ret: 4.9%
  WBC: 97.5 x10_2/uL
  KIDNEY_L: 1.2 g
  KIDNEY_R: 1.2 g
  KIDNEY_TOTAL: 2.3 g
  LIVER: 14.9 g
  ALP: 1236.4 IU/L
  ALT: 47.6 IU/L
  AST: 69.4 IU/L
  BUN: 18.2 mg/dL
  CRE: 0.2 mg/dL
  Ca: 10.9 mg/dL
  Cl: 107.6 meq/L
  DBIL: 0.012 mg/dL
  GLC: 172.6 mg/dL
  IP: 7 mg/dL
  K: 4.2 meq/L
  LDH: 48 IU/L
  Na: 143.8 meq/L
  PL: 150 mg/dL
  RALB: 2.7 g/dL
  TBIL: 0.018 mg/dL
  TC: 79.6 mg/dL
  TG: 115.8 mg/dL
  TP: 5.8 g/dL
  gamma-GTP: 1 IU/L
[4]
  TERMINAL_BW: 380.8 g
  APTT: 18.7 s
  Bas: 0.4%
  Eos: 1%
  Fbg: 277 mg/dL
  Hb: 13.5 g/dL
  Ht: 41.7%
  Lym: 73%
  MCH: 21.3 pg
  MCHC: 32.3%
  MCV: 66.1 fL
  Mono: 3.6%
  Neu: 21%
  PT: 13.8 s
  Plat: 123.7 x10_4/uL
  RBC: 630.8 x10_4/ul
  Ret: 10.7%
  WBC: 113.4 x10_2/uL
  KIDNEY_L: 1.3 g
  KIDNEY_R: 1.2 g
  KIDNEY_TOTAL: 2.5 g
  LIVER: 15.8 g
  ALP: 1129.6 IU/L
  ALT: 40 IU/L
  AST: 73.8 IU/L
  BUN: 17.8 mg/dL
  CRE: 0.3 mg/dL
  Ca: 10.3 mg/dL
  Cl: 106.6 meq/L
  DBIL: 0.012 mg/dL
  GLC: 165 mg/dL
  IP: 5.7 mg/dL
  K: 3.8 meq/L
  LDH: 56.2 IU/L
  Na: 143.8 meq/L
  PL: 146 mg/dL
  RALB: 2.7 g/dL
  TBIL: 0.026 mg/dL
  TC: 73 mg/dL
  TG: 126.8 mg/dL
